IC50 data for one compound are collected here from paper doi:10.1101/365908v1 (biorxiv, 2018).

This test has as its target T1, human GSDMD (full-length) (Homo sapiens, UniProt P57764).
T1 sequence (P57764 1-484): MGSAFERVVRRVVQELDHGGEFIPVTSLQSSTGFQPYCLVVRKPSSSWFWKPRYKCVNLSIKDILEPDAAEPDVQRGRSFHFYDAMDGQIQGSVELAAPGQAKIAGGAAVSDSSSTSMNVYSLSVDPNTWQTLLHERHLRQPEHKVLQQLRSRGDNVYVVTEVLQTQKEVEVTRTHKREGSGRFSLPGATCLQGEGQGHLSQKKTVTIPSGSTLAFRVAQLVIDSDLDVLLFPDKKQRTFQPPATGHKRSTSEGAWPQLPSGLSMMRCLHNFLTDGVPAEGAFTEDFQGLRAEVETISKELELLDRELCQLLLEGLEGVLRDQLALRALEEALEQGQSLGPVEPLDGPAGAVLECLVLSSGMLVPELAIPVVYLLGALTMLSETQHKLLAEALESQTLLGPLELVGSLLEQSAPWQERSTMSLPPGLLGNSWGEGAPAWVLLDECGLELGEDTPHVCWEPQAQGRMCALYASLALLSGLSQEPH
As to the kind of experiment: Tb3+/DPA liposome leakage. It is filed as biochemical. The following applies: covalent (Cys191); 1 h preincubation; cleavage by 0.15 µM caspase-11; no Cu(II).

On to `CCN(CC)C(=S)SSC(=S)N(CC)CC` [C-23, Tetraethylthiuram disulfide], for which the IC50 (commonly the concentration that gives 50% inhibition) was 0.3 ± 0.01 µM.
